Experimental data taken from ChEMBL document CHEMBL4000165, “Chemosensitizing effect of Paris Saponin I on Camptothecin and 10-hydroxycamptothecin in lung cancer cells via p38 MAPK, ERK, and Akt signaling pathways” (Eur J Med Chem, 2017).
Activity calls are given as the source filed them. The rule behind the calls is not given here.

Test system: NCI-H1299
Assay: Induction of apoptosis in human NCI-H1299 cells assessed as activation of caspase-3/7 at 0.3 uM after 48 hrs by luciferase reporter gene assay
Assay type: functional, cell-based

C[C@@H]1CC[C@@]2(OC1)O[C@H]1C[C@H]3[C@@H]4CC=C5C[C@@H](O[C@@H]6O[C@H](CO)[C@@H](O[C@@H]7O[C@@H](CO)[C@H](O)[C@H]7O)[C@H](O)[C@H]6O[C@@H]6O[C@@H](C)[C@H](O)[C@@H](O)[C@H]6O)CC[C@]5(C)[C@H]4CC[C@]3(C)[C@H]1[C@@H]2C
Activity: inactive
